The source of these data is PubChem BioAssay (NCI).

“And” between values parts separate entries of the source, which are not always exact repeats. Identical values can stand only once.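 Method: 48-hour compound exposure of cells in 96-well plates, five concentrations, linear interpolation of endpoints. The concentration for 50% growth inhibition is given as GI50. At the TGI there is no net growth.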

Test systems include UO-31 renal; MDA-MB-231 breast; NCI-H226 lung; PC-3 prostate; HCC-2998 colon; SR leukemia; DU-145 prostate; NCI-H23 lung; HL-60(TB) leukemia; HS 578T breast.
Assay in all cases: NCI anticancer screen, dose series, 48 h

Consider `COc1ccc(CNC(=O)c2ccc(-c3cc(-c4nnc(C)o4)ccc3C)cc2)cc1`, for which the GI50 with UO-31 renal is 6.03 µM; in the assay on MDA-MB-231 breast, greater than 25 µM; in the assay on NCI-H226 lung, greater than 20.4 µM; in the assay with PC-3 prostate, 19.2 µM; with HCC-2998 colon, greater than 25 µM; with SR leukemia, greater than 25 µM. For the same compound, the GI50 with DU-145 prostate is greater than 25 µM; with NCI-H23 lung, 17.4 µM; in the assay with HL-60(TB) leukemia, greater than 18.5 µM; in the assay on HS 578T breast it was greater than 25 µM. Moreover, the TGI with UO-31 renal, in the assay on MDA-MB-231 breast, with NCI-H226 lung, with PC-3 prostate, with HCC-2998 colon and in the assay on SR leukemia was greater than 25 µM in each case. Besides, the TGI in the assay on DU-145 prostate, in the assay with NCI-H23 lung, in the assay on HL-60(TB) leukemia and in the assay on HS 578T breast was greater than 25 µM throughout.
For `CCCC(=O)Nc1cn(COC)c(C(=O)N2C[C@H]3C[C@@]34C2=CC(=O)c2[nH]cc(C)c24)n1`, the GI50 with UO-31 renal was 3.47 µM; with MDA-MB-231 breast, 10.7 µM; with HCC-2998 colon, 1.89 µM; in the assay on DU-145 prostate it was 2.56 µM; in the assay on NCI-H23 lung, 2.59 µM; in the assay with HS 578T breast it was 20.9 µM. For the same compound, the TGI in the assay with UO-31 renal was 28.1 µM and 73.1 µM; in the assay with MDA-MB-231 breast, 39.7 µM and > 100 µM; in the assay on NCI-H226 lung it was 39.4 µM; in the assay with PC-3 prostate it was 50 µM and > 100 µM; in the assay on HCC-2998 colon, 9.14 µM and 6.59 µM; in the assay on SR leukemia, greater than 100 µM. Moreover, the TGI with DU-145 prostate is 5 µM and 11.4 µM; in the assay with NCI-H23 lung it was 11.8 µM and 16.7 µM; with HS 578T breast it was 43.1 µM and > 100 µM.
In the case of `Cc1cc(C)c2nccc(NCCCN(C)C)c2c1[N+](=O)[O-]`, the TGI in the assay on UO-31 renal is 42.8 µM; in the assay with MDA-MB-231 breast, greater than 100 µM; with PC-3 prostate, greater than 100 µM; with HCC-2998 colon, 51.1 µM; in the assay with SR leukemia it was greater than 100 µM; in the assay on DU-145 prostate it was greater than 100 µM. Also, the TGI in the assay on NCI-H23 lung was 37.2 µM; with HL-60(TB) leukemia, 78.1 µM; in the assay with HS 578T breast, greater than 100 µM.
For the compound `COc1cc(/C=C2/C(=O)N(C(=O)c3ccccc3O)N=C2C)ccc1O`, the TGI in the assay with MDA-MB-231 breast was greater than 100 µM; in the assay on NCI-H226 lung it was 31.2 µM; in the assay on PC-3 prostate, greater than 100 µM; in the assay on HCC-2998 colon it was greater than 100 µM; with SR leukemia it was greater than 100 µM; with DU-145 prostate, greater than 100 µM. Also, the TGI in the assay with HL-60(TB) leukemia was greater than 52.9 µM; in the assay on HS 578T breast it was greater than 100 µM.
Turning to `COc1ccc(-c2nc(/C=N/Nc3cc(C)nc4ccc(Br)cc34)c(C)o2)cc1`, the GI50 in the assay with UO-31 renal is 1.52 µM; in the assay with MDA-MB-231 breast, 1.93 µM; in the assay on NCI-H226 lung, 2.09 µM; with PC-3 prostate, 1.67 µM; in the assay on HCC-2998 colon it was 1.96 µM; with SR leukemia, 0.315 µM. The figures for the GI50 in the assay with DU-145 prostate, in the assay with HL-60(TB) leukemia and in the assay with HS 578T breast were 1.75 µM, 1.49 µM and 2.02 µM, respectively. Further, the TGI with UO-31 renal worked out at 2.89 µM; in the assay with MDA-MB-231 breast, 3.72 µM; in the assay with NCI-H226 lung, 4.64 µM; in the assay on PC-3 prostate, 3.2 µM; in the assay with HCC-2998 colon, 3.65 µM; in the assay with SR leukemia, 1.59 µM. The results for the TGI in the assay with DU-145 prostate, in the assay with HL-60(TB) leukemia and in the assay with HS 578T breast were 3.34 µM, 3.47 µM and 4.1 µM, respectively.
As to `NCCNc1nc2ccccc2c2c(=O)c3cc(F)cc(Cl)c3sc12`, the GI50 in the assay on UO-31 renal was 1.22 µM; in the assay on MDA-MB-231 breast it was 1.48 µM; in the assay on NCI-H226 lung it was 9.54 µM; in the assay on PC-3 prostate, 1.42 µM; in the assay on HCC-2998 colon it was 1.75 µM; in the assay on DU-145 prostate, 1.73 µM. The GI50 was 1.75 µM in the assay on NCI-H23 lung, 1.88 µM in the assay with HL-60(TB) leukemia and 1.63 µM with HS 578T breast. The TGI in the assay with UO-31 renal is 2.49 µM; with MDA-MB-231 breast it was 2.93 µM; with NCI-H226 lung, 31.2 µM; in the assay with PC-3 prostate, 2.9 µM; with HCC-2998 colon, 3.45 µM; in the assay with DU-145 prostate it was 3.22 µM. Also, the TGI with NCI-H23 lung is 3.42 µM; in the assay with HL-60(TB) leukemia, 3.76 µM; in the assay with HS 578T breast, 3.7 µM.
As for `NCCn1c2c(c3ccccc3c1=O)C(=O)c1ccccc1-2`, the GI50 in the assay with UO-31 renal was 0.458 µM; in the assay on MDA-MB-231 breast it was 0.431 µM; with NCI-H226 lung it was 0.452 µM; in the assay with PC-3 prostate, 1.11 µM; in the assay on HCC-2998 colon it was 0.329 µM; with NCI-H23 lung it was 0.237 µM. Also, the results for the GI50 with HL-60(TB) leukemia and in the assay with HS 578T breast were 0.162 µM and 1.58 µM, respectively. For the same compound, the TGI in the assay with UO-31 renal is 5.33 µM; in the assay on MDA-MB-231 breast, 1.49 µM; in the assay on NCI-H226 lung, 3.02 µM; in the assay on PC-3 prostate it was 8.73 µM; in the assay with HCC-2998 colon, 1.64 µM; with DU-145 prostate, 2.58 µM. Besides, the TGI is 1.86 µM in the assay with NCI-H23 lung, 0.611 µM in the assay on HL-60(TB) leukemia and 6.66 µM in the assay on HS 578T breast.
Turning to `CC(=O)N=S(NC(=O)c1ccc(C)cc1)C(Cl)(Cl)Cl` (configuration not stated), the TGI in the assay with UO-31 renal is 56 µM; with MDA-MB-231 breast, 68 µM; with NCI-H226 lung, greater than 100 µM; in the assay with PC-3 prostate, greater than 100 µM; in the assay on HCC-2998 colon, 30.5 µM; in the assay on DU-145 prostate it was greater than 100 µM. Also, the values for the TGI in the assay on NCI-H23 lung, with HL-60(TB) leukemia and with HS 578T breast were 68.2 µM, 26.9 µM and greater than 100 µM, respectively.
Take `Cc1ccc2c(C(C[N+](=O)[O-])c3ccco3)c(-c3ccccc3)[nH]c2c1` (configuration not stated): the GI50 is 33.1 µM in the assay with UO-31 renal; 27.1 µM in the assay with MDA-MB-231 breast; greater than 100 µM in the assay with NCI-H226 lung; 39.2 µM in the assay on PC-3 prostate; greater than 100 µM in the assay on HCC-2998 colon; 74.4 µM in the assay on DU-145 prostate. The GI50 in the assay with NCI-H23 lung was 64.5 µM; in the assay on HL-60(TB) leukemia, 28.3 µM; in the assay with HS 578T breast it was 17.5 µM. Also, the TGI in the assay on UO-31 renal, in the assay with MDA-MB-231 breast, in the assay with NCI-H226 lung, in the assay on PC-3 prostate, in the assay with HCC-2998 colon and in the assay on DU-145 prostate was greater than 100 µM throughout. The TGI in the assay with NCI-H23 lung, in the assay with HL-60(TB) leukemia and with HS 578T breast was greater than 100 µM throughout.
